Assays:
[1] = molecular target: human recombinant GCL (Homo sapiens (Human), UniProt P48506); assay: GCL enzyme profiling assay (ADP-Glo luminescence); type: biochemical; settings: human recombinant GCL, ADP-Glo; read-out: GCL IC50
Outline: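 IC50 fitted by four-parameter logistic to luminescent ADP formation (ADP-Glo). Reaction at room temperature in HEPES pH 7.5 with 30 mM MgCl2, 0.2% F-127, 1% DMSO; 5 nM GCL and 0.6 mM ATP preincubated 1 h before adding 1 mM glutamate plus 1.2 mM α-aminobutyrate for 2 h.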

[2] = tested on: RKN cells; assay: RKN cell profiling assay (cell viability, CellTiter-Glo); type: cell-based; settings: cell viability, read-out: Cell Killing EC50
Outline: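 Viability read by CellTiter-Glo luminescence after 96 h compound exposure (0.5% DMSO final) of cells plated at 1,000/well in 10% FBS F-12 and allowed 24 h attachment. Four-parameter fits gave EC50; rescue arms used ferrostatin-1, 1.5 μM, present from seeding.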

Sequence of human recombinant GCL (P48506 whole entry): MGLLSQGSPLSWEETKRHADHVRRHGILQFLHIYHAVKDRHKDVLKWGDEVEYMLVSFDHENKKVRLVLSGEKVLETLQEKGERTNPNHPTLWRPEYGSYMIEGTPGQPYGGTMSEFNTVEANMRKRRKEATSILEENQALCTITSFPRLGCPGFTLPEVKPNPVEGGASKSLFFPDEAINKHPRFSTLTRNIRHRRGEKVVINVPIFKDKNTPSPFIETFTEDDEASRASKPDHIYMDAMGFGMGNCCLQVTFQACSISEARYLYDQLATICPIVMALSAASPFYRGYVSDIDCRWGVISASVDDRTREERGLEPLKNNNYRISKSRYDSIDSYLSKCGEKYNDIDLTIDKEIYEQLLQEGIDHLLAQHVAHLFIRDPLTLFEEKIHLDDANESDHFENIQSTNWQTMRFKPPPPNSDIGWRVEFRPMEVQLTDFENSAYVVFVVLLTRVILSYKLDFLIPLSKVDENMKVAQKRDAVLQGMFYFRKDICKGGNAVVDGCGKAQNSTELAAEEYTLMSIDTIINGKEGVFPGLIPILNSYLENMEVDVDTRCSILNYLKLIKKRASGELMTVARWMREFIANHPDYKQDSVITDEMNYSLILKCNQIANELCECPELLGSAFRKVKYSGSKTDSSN

| SMILES | IC50 [1] | EC50 [2] |
| --- | --- | --- |
| N=S(=O)(CC[C@H](N)C(=O)O)CCC1(c2ccc3[nH]cnc3c2)CCC1 (stereo partly drawn) [Compound 396] | 20 to 2000 µM | ≥ 1000 µM |
| N=S(=O)(CCC(n1nccn1)C(F)(F)F)CC[C@H](N)C(=O)O (stereo partly drawn) [Compound 404, (2S)-2-amino-4-[[4,4,4-trifluoro-3-(triazol-2-yl)butyl]sulfonimidoyl]butanoic acid] | 20 to 2000 µM | < 1000 µM |
| N=S(=O)(CC[C@H](N)C(=O)O)CCC1(n2nccn2)CCC1 (stereo partly drawn) [Compound 405, (2S)-4-(2-(1-(2H-1,2,3-triazol-2-yl)cyclobutyl)ethylsulfonimidoyl)-2-aminobutanoic acid] | 20 to 2000 µM | < 1000 µM |
| N=S(=O)(CCC(n1cccn1)C(F)(F)F)CC[C@H](N)C(=O)O (stereo partly drawn) [Compound 411] | 20 to 2000 µM | < 1000 µM |
| Cc1ccn(C(CCS(=N)(=O)CC[C@H](N)C(=O)O)C(F)(F)F)n1 (stereo partly drawn) [Compound 412] | 20 to 2000 µM | ≥ 1000 µM |
| N=S(=O)(CCC(n1ccc(C2CC2)n1)C(F)(F)F)CC[C@H](N)C(=O)O (stereo partly drawn) [Compound 413] | 20 to 2000 µM | ≥ 1000 µM |
| N=S(=O)(CCC(n1ccc(-c2cccnc2)n1)C(F)(F)F)CC[C@H](N)C(=O)O (stereo partly drawn) [Compound 414] | 20 to 2000 µM | ≥ 1000 µM |
| N=S(=O)(CCC(n1ccc(-c2ccccn2)n1)C(F)(F)F)CC[C@H](N)C(=O)O (stereo partly drawn) [Compound 415] | 20 to 2000 µM | ≥ 1000 µM |
| Cc1cnn(C2(CCS(=N)(=O)CC[C@H](N)C(=O)O)CCC2)n1 (stereo partly drawn) [Compound 417] | 20 to 2000 µM | < 1000 µM |
| N=S(=O)(CC[C@H](N)C(=O)O)CCC1(n2ncc(-c3ccccn3)n2)CCC1 (stereo partly drawn) [Compound 418] | 20 to 2000 µM | ≥ 1000 µM |
| N=S(=O)(CC[C@H](N)C(=O)O)CCC1(n2ncc(-c3cccnc3)n2)CCC1 (stereo partly drawn) [Compound 419] | 20 to 2000 µM | ≥ 1000 µM |
| N=S(=O)(CC[C@H](N)C(=O)O)CCC(O)(c1ccc(-c2ccc3ccc(=O)oc3c2)cc1)C(F)(F)F (stereo partly drawn) [Compound 425, (2S)-2-amino-4-(4,4,4-trifluoro-3-hydroxy-3-(4-(2-oxo-2H-chromen-7-yl)phenyl)butylsulfonimidoyl)butanoic acid] | ≤ 20 µM | ≥ 1000 µM |
| N=S(=O)(CC[C@H](N)C(=O)O)CCC(O)(c1ccc(-n2cccn2)cc1)C(F)(F)F (stereo partly drawn) [Compound 426, (2S)-4-(3-(4-(1H-pyrazol-1-yl)phenyl)-4,4,4-trifluoro-3-hydroxybutylsulfonimidoyl)-2-aminobutanoic acid] | 20 to 2000 µM | ≥ 1000 µM |
| N[C@@H](CCS(=O)(=O)CCC(O)(c1ccc(-c2ccc(Cl)cc2Cl)cc1)C(F)(F)F)C(=O)O (stereo partly drawn) [Compound 427, (2S)-2-amino-4-((3-(2′, 4′-dichloro-[1, 1′-biphenyl]-4-yl)-4,4,4-trifluoro-3-hydroxybutyl)sulfonyl) butanoic acid] | 20 to 2000 µM | ≥ 1000 µM |
| N=S(=O)(CC[C@H](N)C(=O)O)CCC(O)(c1ccc(-c2ccc(Cl)cc2Cl)cc1)C(F)(F)F (stereo partly drawn) [Compound 428] | ≤ 20 µM | < 1000 µM |
| N=S(=O)(CC[C@H](N)C(=O)O)CCC(O)(c1ccc(-c2ccccc2O)cc1)C(F)(F)F (stereo partly drawn) [Compound 434] | ≤ 20 µM | < 1000 µM |
| Cc1ccc(-c2ccc(C(O)(CCS(=N)(=O)CC[C@H](N)C(=O)O)C(F)(F)F)cc2)c(C)c1 (stereo partly drawn) [Compound 438] | ≤ 20 µM | < 1000 µM |
| N=S(=O)(CC[C@H](N)C(=O)O)CCC(O)(c1ccc(-c2ccc(C(F)(F)F)cc2C(F)(F)F)cc1)C(F)(F)F (stereo partly drawn) [Compound 439] | ≤ 20 µM | < 1000 µM |
| N=S(=O)(CC[C@H](N)C(=O)O)CCC(O)(c1ccc(-c2ccc(C(F)(F)F)cc2Cl)cc1)C(F)(F)F (stereo partly drawn) [Compound 441] | 20 to 2000 µM | < 1000 µM |
| N=S(=O)(CC[C@H](N)C(=O)O)CCC(O)(c1ccc(-c2cccc3ccccc23)cc1)C(F)(F)F (stereo partly drawn) [Compound 444] | ≤ 20 µM | < 1000 µM |
| CC(C)(C)c1nnc(-c2ccc(C(O)(CCS(=N)(=O)CC[C@H](N)C(=O)O)C(F)(F)F)cc2)o1 (stereo partly drawn) [Compound 445] | 20 to 2000 µM | ≥ 1000 µM |
| N#Cc1cc(-c2ccc(C(O)(CCS(=N)(=O)CC[C@H](N)C(=O)O)C(F)(F)F)cc2)ccc1O (stereo partly drawn) [Compound 454] | ≤ 20 µM | ≥ 1000 µM |
| Cc1cc(C(O)(CCS(=N)(=O)CC[C@H](N)C(=O)O)C(F)(F)F)ccc1-c1ccc(O)c(F)c1 (stereo partly drawn) [Compound 455] | ≤ 20 µM | ≥ 1000 µM |
| CC(C)(C)c1cc(-c2ccc(C(O)(CCS(=N)(=O)CC[C@H](N)C(=O)O)C(F)(F)F)cc2)ccc1O (stereo partly drawn) [Compound 456] | ≤ 20 µM | ≥ 1000 µM |
| N=S(=O)(CC[C@H](N)C(=O)O)CCC(O)(c1ccc(Cc2ccc(Cl)cc2Cl)cc1)C(F)(F)F (stereo partly drawn) [Compound 457] | ≤ 20 µM | ≥ 1000 µM |
| N=S(=O)(CC[C@H](N)C(=O)O)CCC(O)(c1ccc(-c2ccc(OC(F)(F)F)cc2O)cc1)C(F)(F)F (stereo partly drawn) [Compound 458] | ≤ 20 µM | < 1000 µM |
| N=S(=O)(CC[C@H](N)C(=O)O)CCC(O)(c1ccc(-c2ccccc2)cn1)C(F)(F)F (stereo partly drawn) [Compound 459, (2S)-2-amino-4-(4,4,4-trifluoro-3-hydroxy-3-(5-phenylpyridin-2-yl)butylsulfonimidoyl)butanoic acid] | ≤ 20 µM | < 1000 µM |
| N[C@@H](CCS(=O)(=O)CCC(O)(c1ccc(-c2ccc(Cl)cc2Cl)cn1)C(F)(F)F)C(=O)O (stereo partly drawn) [Compound 460, (2S)-2-amino-4-[3-[5-(2,4-dichlorophenyl)-2-pyridyl]-4,4,4-trifluoro-3-hydroxy-butyl]sulfonyl-butanoic acid] | ≤ 20 µM | < 1000 µM |

Further lines, with some results ahead:

| IC50 [1] | SMILES | EC50 [2] |
| --- | --- | --- |
| ≤ 20 µM | COc1ccccc1C(CCS(=N)(=O)CC[C@H](N)C(=O)O)C(F)(F)F (stereo partly drawn) [Compound 398] | < 1000 µM |
| ≤ 20 µM | COc1ccc(-c2ccc(C3(CCS(=N)(=O)CC[C@H](N)C(=O)O)CCC3)cc2)c(Cl)c1 (stereo partly drawn) [Compound 400] | < 1000 µM |
| ≤ 20 µM | N=S(=O)(CC[C@H](N)C(=O)O)CCC1(c2ccc(-c3ccc(O)cc3Cl)cc2)CCC1 (stereo partly drawn) [Compound 401] | ≥ 1000 µM |
| ≤ 20 µM | N=S(=O)(CC[C@H](N)C(=O)O)CCC1(c2ccc(-c3ccc(Cl)cc3Cl)cc2)CCC1 (stereo partly drawn) [Compound 402] | < 1000 µM |
| ≤ 20 µM | Cc1cnn(C(CCS(=N)(=O)CC[C@H](N)C(=O)O)C(F)(F)F)n1 (stereo partly drawn) [Compound 406] | < 1000 µM |
| ≤ 20 µM | N=S(=O)(CCC(n1ncc(-c2ccccn2)n1)C(F)(F)F)CC[C@H](N)C(=O)O (stereo partly drawn) [Compound 407] | ≥ 1000 µM |
| ≤ 20 µM | N=S(=O)(CCC(n1ncc(-c2cccnc2)n1)C(F)(F)F)CC[C@H](N)C(=O)O (stereo partly drawn) [Compound 408] | ≥ 1000 µM |
| ≤ 20 µM | N=S(=O)(CCC(n1ncc(-c2ccccc2)n1)C(F)(F)F)CC[C@H](N)C(=O)O (stereo partly drawn) [Compound 409] | < 1000 µM |
| ≤ 20 µM | N=S(=O)(CCC(n1nc2ccccc2n1)C(F)(F)F)CC[C@H](N)C(=O)O (stereo partly drawn) [Compound 410] | ≥ 1000 µM |
| ≤ 20 µM | N=S(=O)(CCC(n1ccc(-c2ccccc2)n1)C(F)(F)F)CC[C@H](N)C(=O)O (stereo partly drawn) [Compound 416] | ≥ 1000 µM |
| ≤ 20 µM | N=S(=O)(CC[C@H](N)C(=O)O)CCC1(n2ncc(-c3ccccc3)n2)CCC1 (stereo partly drawn) [Compound 420] | ≥ 1000 µM |
| ≤ 20 µM | N=S(=O)(CC[C@H](N)C(=O)O)CCC1(n2nc3ccccc3n2)CCC1 (stereo partly drawn) [Compound 421] | ≥ 1000 µM |
| ≤ 20 µM | N=S(=O)(CC[C@H](N)C(=O)O)CCC(O)(c1ccc(-c2ccccc2)cc1)C(F)(F)F (stereo partly drawn) [Compound 424, (2S)-4-(3-([1,1′-biphenyl]-4-yl)-4,4,4-trifluoro-3-hydroxybutylsulfonimidoyl)-2-aminobutanoic acid] | < 1000 µM |
| ≤ 20 µM | COc1cc(OC(F)(F)F)ccc1-c1ccc(C(O)(CCS(=N)(=O)CC[C@H](N)C(=O)O)C(F)(F)F)cc1 (stereo partly drawn) [Compound 440] | < 1000 µM |
| ≤ 20 µM | CS(=O)(=O)c1ccc(-c2ccc(C(O)(CCS(=N)(=O)CC[C@H](N)C(=O)O)C(F)(F)F)cc2)c(Cl)c1 (stereo partly drawn) [Compound 442] | ≥ 1000 µM |
| ≤ 20 µM | N=S(=O)(CC[C@H](N)C(=O)O)CCC(O)(c1ccc(NC(=O)c2ccsc2)cc1)C(F)(F)F (stereo partly drawn) [Compound 446] | < 1000 µM |
| ≤ 20 µM | Cc1cc(-c2ccc(C(O)(CCS(=N)(=O)CC[C@H](N)C(=O)O)C(F)(F)F)cc2)c(C)o1 (stereo partly drawn) [Compound 447] | ≥ 1000 µM |
| ≤ 20 µM | Cc1noc(C)c1-c1ccc(C(O)(CCS(=N)(=O)CC[C@H](N)C(=O)O)C(F)(F)F)cc1 (stereo partly drawn) [Compound 448] | ≥ 1000 µM |
| ≤ 20 µM | N=S(=O)(CC[C@H](N)C(=O)O)CCC(O)(c1ccc(-c2ccc(Cl)cc2Cl)cc1OC(F)(F)F)C(F)(F)F (stereo partly drawn) [Compound 449] | ≥ 1000 µM |
| ≤ 20 µM | N=S(=O)(CC[C@H](N)C(=O)O)CCC(O)(c1ccc(-c2ccc(Cl)cc2Cl)cc1F)C(F)(F)F (stereo partly drawn) [Compound 450] | < 1000 µM |
| ≤ 20 µM | CCOc1cccc(-c2ccc(C(O)(CCS(=N)(=O)CC[C@H](N)C(=O)O)C(F)(F)F)cc2)c1 (stereo partly drawn) [Compound 451] | < 1000 µM |
| ≤ 20 µM | Cc1ccc(-c2ccc(C(O)(CCS(=N)(=O)CC[C@H](N)C(=O)O)C(F)(F)F)cc2C#N)cc1 (stereo partly drawn) [Compound 452] | ≥ 1000 µM |
| ≤ 20 µM | N=S(=O)(CC[C@H](N)C(=O)O)CCC(O)(c1ccc(-c2ccc(O)c(F)c2)cc1)C(F)(F)F (stereo partly drawn) [Compound 453] | ≥ 1000 µM |

From patent US20260034094A1, “COMPOSITIONS AND METHODS FOR INDUCING FERROPTOSIS” (Kojin Therapeutics, Inc., priority 2022, published 2026)
